# Assay results taken from US8304238B2, “Cell culture medium and immobilized preparation of cell adhesion protein or peptide” (Nat'l Institute for Environmental Studies, priority 2003, dated 2012).
# Entries after “also recorded” stand apart in the source; their conditions may differ. Where no end group is shown, it is not given here.
# Experiments:
# [1] = system: alveolar type II epithelial cells (T2 cells); assay: Inhibition by free cell adhesion peptides of T2 cell adhesion to coated cell adhesion proteins FN, Col I, LN, VN; format: cell-based; details: for Inhibition of adhesion of T2 cells to FN, Col I, LN and VN by free peptide: free peptide 0.25 mg/ml, serum-free, 1 day
# Method: Commercially available FN, LN and VN, usually used as cell adhesion proteins at cell culture, were coated to wells at the concentrations of 5 μg/ml, 10 μg/ml and 10 μg/ml, respectively. In case of Col I (collagen type I), Col I at the concentration of 100 μg/ml, dissolved in 1 mM HCl, was poured into a well, left stand still for a while, and then the solution was removed and air-drying was conducted, and rinsed with the medium, before use. Next, 6×10^5 cells/ml of alveolar type II epithelial cells (T2 cells) suspended in the serum-free DMEM medium was seeded by 100 μl each on a 96-well to which the extracellular matrix was coated, and cultured in a CO2 incubator at 37° C. for 1 day. After the culture was finished, the cells were fixed with 100 μl of methanol for 5 minutes, and stained for 30 minutes with 50 μl of 0.4% crystal violet. Excessive staining was washed with water, then the number of cells adhered to FN, Col I, LN and VN, which had been coated to the wells, was counted based on the absorbance of cytoplasm (A595).
# On the other hand, among amino acid sequences of various LN molecules, the sequences that induce cell adhesion are known to be present. […] Then, the number of cells was counted in accordance with the method described above.
# [2] = system: alveolar type II epithelial cells (T2 cells); assay: Time course of cell adhesion/spreading of T2 cells on immobilized cell adhesion peptide substrates; format: cell-based
# Method: Culture was conducted by using the cell adhesion peptides immobilized on a well and T2 cells, for 1-24 hours according to the method in Example 8.
# As cell adhesion peptides, AG73 was used in B, E and M, FIB-1 was used in C, L and O, A3G72 was used in F, A4G82 was used in G and N, A5G71 was used in H, A5G77 was used in I, hA3G75 was used in J, and hA3G83 was used in K; FN was used as a standard substance in A and D.
# [3] = system: alveolar type II epithelial cells (T2 cells); assay: Binding strength (affinity) of immobilized LN peptides to T2 cells relative to immobilized FIB-1 (mixed immobilization, free FIB-1 competition); format: cell-based; set-up: key to Binding strength to T2 cells, Comprehensive evaluation: AA: extremely strongly binding/adhering; A: strongly binding/adhering; B: intermediately binding/adhering (as the same degree as FIB-1 peptide); C: more weakly binding/adhering than FIB-1 peptide; details: for Binding strength to T2 cells, Comprehensive evaluation: classification relative to FIB-1 peptide; for Binding strength to T2 cells, Ratio to FIB-1: inverse of mixing ratio at transitional midpoint, MMAC-coated well; for Binding strength to T2 cells, Ratio to FIB-1 / Mixing ratio at the transitional midpoint: FIB-1 0.25 mg/ml; for Mixing ratio at the transitional midpoint: peptide:FIB-1 co-immobilized, loss of inhibition by free FIB-1
# Method: Therefore, the amount of FIB-1 peptide was set at 0.25 mg/ml, and AG73 peptide was mixed therewith, while changing its concentration ratio, from 1/1.250 of FIB-1 in an amount which is 0.20 μg/ml, to ½ of FIB-1 in an amount which is 0.125 mg/ml, and the mixture was immobilized on a well wherein a hydrophobic binding-adsorptive polymer MMAC was coated. The amount of cell adhesion in the case where T2 cells were cultured under a serum-free condition for 1 day on the immobilized peptides is shown in FIG. 9, in comparison with the case where the culture was conducted on the immobilized FIB-1, which was set at 100%.
# However, in a case that the ratio of FIB-1:AG73 increased to 1:0.02, because T2 cells already transited to be adherent through the immobilized AG73 peptide, free FIB-1 peptide could no longer inhibit the cell adhesion. […] Likewise, with regard to A3G72 and A4G82 peptides, because the mixing ratio at the transitional midpoint=0.1, their binding strength to T2 cells is 10 times as much as that of FIB-1.
# The method used in FIGS. 8 and 9 is extremely effective as a convenient method by which a relative order can be measured concerning to the binding strength (affinity) of cell adhesion peptides and the strength of cell adhesion can be considered quantitatively.
# In Table 1, the classification is shown based on the results of the affinity (bonding/adhesion strength) between FIB-1 peptide containing RGD amino acid sequence of FN molecule, a binding site to integrin, and T2 cells: laminin α-chain G-domain peptides are classified into class AA, extremely strong binding/adhesion; class A, strong adhesion; class B, adhesion as the same degree as FIB-1; and class C, binding weaker than the described above.
# [4] = system: alveolar type II epithelial cells (T2 cells); assay: Inhibition of T2 cell adhesion by free peptide different from the immobilized peptide substrate; format: cell-based; details: for Inhibition by free peptide of T2 cell adhesion to immobilized AG73: AG73 (etc.) immobilized; for Inhibition by free peptide of T2 cell adhesion to immobilized FIB-1: FIB-1 immobilized
# Method: Results obtained by adding the free peptides different from the immobilized peptides when T2 cells were cultured on the immobilized peptide prepared according to the method in Example 7, were shown in FIG. 8.
# When adding the free peptides that were the same as the immobilized peptides in the culture medium, the both (free and immobilized) peptides compete for syndecan of T2 cells and as a result, the cell adhesion is inhibited (see Example 7). So far, four types of syndecans are genetically known. Whether these syndecans are commonly owned or accommodated by each peptide, overlapping only by some degrees, otherwise mutually exclusive, was examined herein.
# [5] = system: alveolar type II epithelial cells (T2 cells); assay: Static and forced stretching culture of T2 cells on MMAC-coated silicone wells with immobilized proteins or peptides; format: cell-based; details: for Reorientation of T2 cells under forced stretching: 1 day static, 1 day stretching (1dC-1dS), 25 percent, 15 times per minute; for Change of type II epithelial cells into a shape like type I epithelial cells: 3 days static, 3 days stretching (3dC-3dS)
# Method: A silicone well coated with MMAC was obtained by pouring 0.5 ml of ethanol solution of 50 μg/ml of MMAC (ISP, International Specialty Products, USA) into a silicone well with a groove of 20 mm×20 mm×10 mm, absorbing excess solution, and conducting air-drying.
# Into the silicone wells coated by the method described in Example 1, 10 μg/ml of cell adhesion protein solution of fibronectin (FN), laminin-1 (LN), dissolved in 0.1 M triethanolamine buffer solution of pH 8.8, or 0.25 mg/ml of cell adhesion peptide solution of FIB-1, AG73 was poured respectively, and the reaction was conducted for at least several hours at 37° C. to bind and immobilize these proteins or peptides having cell adhesion activity (see Example 6 described later for particulars of immobilization). Subsequently, alveolar type II epithelial cell (T2 cells) suspension was poured, 5×10^4/cm^2 per unit area, and the culture was started in a CO2 culture apparatus.
# T2 cells, 2×10^5/cm^2 per unit area, were seeded on the silicone well wherein the cell adhesion proteins or peptides were immobilized, which had been prepared in an almost same manner as that of Example 2, and static culture was conducted for 1 day. After confirming that the seeded cells confluently spread all over the culture face, horizontal cell stretching was forcibly started at the stretching degree of twenty five percents and at the frequency of 15 times per minute, by using cell culture stretching apparatus (Scholar Tec), and the culture was continued one more day. After the culture was finished, photographs of cell adhesion state were taken with a phase contrast microscope (FIG. 2, top 4 rows).
# T2 cells, 5×10^4/cm^2 per unit area, were seeded on the silicone well wherein the cell adhesion proteins or peptides were immobilized, which had been prepared in an almost same manner as that of Example 2, and static culture was conducted for 3 days. T2 cells grew in a manner similar to that shown in FIG. 1, 3d (results are not shown because they are overlapping). Then, the cells were subjected to the same stimuli of forced stretching as in Example 1, and the culture was continued one more day. After the culture was finished, photographs of cell adhesion state were taken with a phase contrast microscope (FIG. 2, middle 4 rows) (FN, 3dC-1dS, LN, 3dC-1dS, FIB-1, 3dC-1dS, and AG-73, 3dC-1dS).
# Forced stretching culture was conducted for 3 days in an almost same manner as stretching culture of Example 4. After the culture was finished, photographs of cell adhesion state were taken with a phase contrast microscope (FIG. 2, bottom 4 rows) (FN, 3dC-3dS, LN, 3dC-3dS, FIB-1, 3dC-3dS, and AG-73, 3dC-3dS).
# [6] = biological target: syndecan present on the cell surface of T2 cells (alveolar type II epithelial cells); assay: T2 cell adhesion to immobilized peptides, competitive inhibition by free peptides (FIGS. 8 and 9)
# [7] = biological target: syndecan present on the cell surface of T2 cells (alveolar type II epithelial cells); assay: T2 cell adhesion to FIB-1 and the peptide co-immobilized on MMAC-coated wells, inhibition by free FIB-1 (FIG. 9)
Molecule,"Inhibition of adhesion of T2 cells to FN, Col I, LN and VN by free peptide [1]",Cell adhesion/spreading on immobilized peptide ([2]; 6-hour culture),"Binding strength to T2 cells, Comprehensive evaluation [3]","Binding strength to T2 cells, Ratio to FIB-1 [3]",Mixing ratio at the transitional midpoint [3],Inhibition by free peptide of T2 cell adhesion to immobilized AG73 [4],Inhibition by free peptide of T2 cell adhesion to immobilized FIB-1 [4],"Binding strength to T2 cells, Ratio to FIB-1 (fold (ratio to FIB-1)) [6]",mixing ratio at the transitional midpoint (peptide to FIB-1) [7],also measured
KNSFMALYLSKG,inhibited adhesion of T2 cells,delay in spreading but sufficient cell adhesion,B,2,about 1,inhibited the cell adhesion,could inhibit,,,
GNSTISIRAPVY,inhibited adhesion of T2 cells,delay in spreading but sufficient cell adhesion,B,1-2,about 1,inhibited the cell adhesion,could inhibit,,,
fibronectin [FN],,,,,,,,,,Reorientation of T2 cells under forced stretching [5]: not very obvious; Change of type II epithelial cells into a shape like type I epithelial cells [5]: less observed
TLFLAHGRLVFM,inhibited adhesion of T2 cells,the cells were spreading,A,10,0.1,inhibited the cell adhesion,could inhibit,,,Cell adhesion/spreading on immobilized peptide ([2]; 24-hour culture): almost all cells had finished spreading
KPRLQFSLDIQT,inhibited adhesion of T2 cells,the cells were spreading,A,10,0.1,inhibited the cell adhesion,,,,
laminin-1 [LN],,,,,,,,,,Reorientation of T2 cells under forced stretching [5]: not very obvious; Change of type II epithelial cells into a shape like type I epithelial cells [5]: changed into a shape like flat type I epithelial cells
RKRLQVQLSIRT,inhibited adhesion of T2 cells,the cells were spreading,AA,100,0.01,inhibited the cell adhesion,inhibited; also recorded: could inhibit,,,Reorientation of T2 cells under forced stretching [5]: spread in an elongated shape to a direction perpendicular to the direction of forced stretching; Change of type II epithelial cells into a shape like type I epithelial cells [5]: changed into a shape like flat type I epithelial cells; Inhibition of adhesion of T2 cells to cell adhesion proteins by free peptide ([1]; free peptide 0.12 mg/ml): exhibited the inhibitory activity; Cell adhesion/spreading on immobilized peptide ([2]; 24-hour culture): almost all cells had finished spreading
VKTEYIKRKAFM [AG81.2 (Val-Lys-Thr-Glu-Tyr-Ile-Lys-Arg-Lys-Ala-Phe-Met)],,,,,,,,< 1,,
KPRLQFSLDIQT [A3G72 (Lys-Pro-Arg-Leu-Gln-Phe-Ser-Leu-Asp-Ile-Gln-Thr)],,,,,,,,10,0.1,
TLFLAHGRLVFM [A4G82 (Thr-Leu-Phe-Leu-Ala-His-Gly-Arg-Leu-Val-Phe-Met)],,,,,,,,10,0.1,
LVLFLNHGHFVA [A5G77 (Leu-Val-Leu-Phe-Leu-Asn-His-Gly-His-Phe-Val-Ala)],,,,,,,,,1,
KNSFMALYLSKG [hA3G75 (Lys-Asn-Ser-Phe-Met-Ala-Leu-Tyr-Leu-Ser-Lys-Gly)],,,,,,,,2,1,
GNSTISIRAPVY [hA3G83 (Gly-Asn-Ser-Thr-Ile-Ser-Ile-Arg-Ala-Pro-Val-Tyr)],,,,,,,,,1,
